Experimental data reported in ChEMBL document CHEMBL4196125, “Identification of N-Benzyl 3,5-Dinitrobenzamides Derived from PBTZ169 as Antitubercular Agents” (ACS Med Chem Lett, 2018).
Values after ≈ are worked out from the molar mass of the structure shown.

Legend:
Format in all cases: functional
[1] = tested on: Mycobacterium tuberculosis; assay: Antitubercular activity against Mycobacterium tuberculosis H37Rv harboring GFP measured after 7 days by fluorescence assay; details: 168 h
[2] = tested on: Mycobacterium tuberculosis; assay: Antitubercular activity against isoniazid/rifampicin-resistant Mycobacterium tuberculosis 14231 clinical isolate measured after 7 days by microplate alamar blue assay; details: Mycobacterium tuberculosis, 14231, 168 h
[3] = tested on: Mycobacterium tuberculosis; assay: Antitubercular activity against isoniazid/rifampicin-resistant Mycobacterium tuberculosis 12525 clinical isolate measured after 7 days by microplate alamar blue assay; details: Mycobacterium tuberculosis, 12525, 168 h

With COc1ccc(OCCNC(=O)c2cc([N+](=O)[O-])cc([N+](=O)[O-])c2)cc1 the MIC [1] was 0.075 µg/mL (≈ 0.208 µM).
With O=C(NCc1ccc(N2CC3CCCCC3C2)cc1)c1cc([N+](=O)[O-])cc([N+](=O)[O-])c1 (centres undefined) the MIC90 [2] was 0.125 µg/mL (≈ 0.294 µM) and the MIC90 [3] was 0.031 µg/mL (≈ 0.073 µM).
O=C(NCc1ccc(N2CCSCC2)cc1)c1cc([N+](=O)[O-])cc([N+](=O)[O-])c1 gave an MIC90 [2] of 0.085 µg/mL (≈ 0.211 µM) and an MIC90 [3] of 0.017 µg/mL (≈ 0.0422 µM).
O=C(NCc1ccc(N2CCC(c3ccc(OC(F)(F)F)cc3)CC2)cc1)c1cc([N+](=O)[O-])cc([N+](=O)[O-])c1 gave an MIC90 [2] of 0.474 µg/mL (≈ 0.871 µM) and an MIC90 [3] of 0.21 µg/mL (≈ 0.386 µM).
For O=C(NCc1ccc(N2CCN(c3ccc(F)cc3)CC2)cc1)c1cc([N+](=O)[O-])cc([N+](=O)[O-])c1, the MIC90 [2] was 0.077 µg/mL (≈ 0.161 µM) and the MIC90 [3] was 0.047 µg/mL (≈ 0.098 µM).
In the case of O=C(NCc1ccc(N2CCC(C(F)(F)F)CC2)cc1)c1cc([N+](=O)[O-])cc([N+](=O)[O-])c1, the MIC90 [2] is reported as 0.075 µg/mL (≈ 0.166 µM) and the MIC90 [3] is reported as < 0.016 µg/mL.
With O=C(NCc1ccc(N2CCC(C(F)(F)F)CC2)cc1)c1cc([N+](=O)[O-])cc(C(F)(F)F)c1 the MIC90 [2] was > 40 µg/mL and the MIC90 [3] was 0.138 µg/mL (≈ 0.29 µM).
With NNC(=O)c1ccncc1 [ISONIAZID] the MIC90 [2] was > 40 µg/mL and the MIC90 [3] was > 40 µg/mL.
Work on O=c1nc(N2CCN(CC3CCCCC3)CC2)sc2c([N+](=O)[O-])cc(C(F)(F)F)cc12 [MACOZINONE] yielded an MIC90 [2] of 0.232 µg/mL (≈ 0.508 µM) and an MIC90 [3] of 0.116 µg/mL (≈ 0.254 µM).
CO[C@H]1/C=C/O[C@@]2(C)Oc3c(C)c(O)c4c(O)c(c(/C=N/N5CCN(C)CC5)c(O)c4c3C2=O)NC(=O)/C(C)=C\C=C\[C@H](C)[C@H](O)[C@@H](C)[C@@H](O)[C@@H](C)[C@H](OC(C)=O)[C@@H]1C [RIFAMPIN] was tested, and the MIC90 [2] was > 40 µg/mL and the MIC90 [3] was > 40 µg/mL.
